± gives the expanded uncertainty stated by the source.
Experiments:
[1] = 298.15 K; 101.33 kPa; Liquid
[2] = xn = mol fraction of the nth substance listed; details: 298.15 K; 101 kPa; Liquid; x1 = 0.61

| Compound | mass density [1] | mass density [2] |
| --- | --- | --- |
| CC(C)=O [acetone] | 784.65 ± 0.31 kg/m3 |  |
| CCC(C)=O [butanone] | 799.75 ± 0.29 kg/m3 |  |
| COC(F)(F)C(F)(C(F)(F)F)C(F)(F)F [methyl nonafluoroisobutyl ether] + COC(F)(F)C(F)(F)C(F)(F)C(F)(F)F |  | 1516.5 ± 1.8 kg/m3 |
| CCC(=O)CC [pentan-3-one] | 809.09 ± 0.28 kg/m3 |  |
